Among the data in patent US10221138B2, “Biaryl derivatives as GPR120 agonists” (LG CHEM, LTD., priority 2013, dated 2019) are EC50 values, retold here.

Where only a bound is given, the exact number is not on record here.

The test addresses T1, hGPR120 (Homo sapiens, UniProt Q5NUL3).
T1 construct: expressed in transfected cells; host or cells: CHO-K1
T1 sequence (Q5NUL3 1-361): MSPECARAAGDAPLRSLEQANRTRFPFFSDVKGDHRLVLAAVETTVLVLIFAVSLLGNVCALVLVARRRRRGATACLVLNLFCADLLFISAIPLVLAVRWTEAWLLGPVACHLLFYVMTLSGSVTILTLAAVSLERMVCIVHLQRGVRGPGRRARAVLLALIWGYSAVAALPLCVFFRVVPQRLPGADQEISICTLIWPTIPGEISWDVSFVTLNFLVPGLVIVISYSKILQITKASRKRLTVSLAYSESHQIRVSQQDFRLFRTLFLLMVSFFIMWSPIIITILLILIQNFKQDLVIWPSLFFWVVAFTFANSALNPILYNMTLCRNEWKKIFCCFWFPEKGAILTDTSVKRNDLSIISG
Kind of test: Measurement of activity of GPR120 agonist (cell-based calcium fluorescence assay). The following applies: CHO-K1 cells expressing Ga16 and hGPR120, Calcium 5 dye fluorescence; activity class; read-out: EC50. The method in brief: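 CHO-K1 cells co-expressing Gα16 and hGPR120, plated 18 h, loaded with Calcium 5 dye for 1 h at 37 °C, then given serially diluted agonists (final 0.5% DMSO). Fluorescence increase expressed as relative % of the 1% DMSO-only signal.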
As a reminder, the EC50 is the concentration that produces a half-maximal response. On to `COc1ccc(-c2ccc(SCCCC(=O)O)c(F)c2)c(OC(C)C)c1` [Example 185, 4-(3-fluoro-2′-isopropoxy-4′-methoxy-biphenyl-4-ylsulfanyl)-butyric acid], for which the EC50 was < 200 nM.
Consider `Cc1cnc(OC2CCCC2)c(-c2ccc(SCCCC(=O)O)c(F)c2)c1` [Example 186, 4-[4-(2-cyclopentyloxy-5-methyl-pyridin-3-yl)-2-fluoro-phenylsulfanyl]-butyric acid], for which the EC50 is < 200 nM.
For `Cc1cnc(OC(C)C)c(-c2ccc(SCCCC(=O)O)c(F)c2)c1` [Example 187, 4-[2-fluoro-4-(2-isopropoxy-5-methyl-pyridin-3-yl)-phenylsulfanyl]-butyric acid] the value was < 200 nM.
Then `CC(C)Oc1ccc(F)cc1-c1ccc(SCCCC(=O)O)c(F)c1` [Example 188, 4-(3,5′-difluoro-2′-isopropoxy-biphenyl-4-ylsulfanyl)-butyric acid], with < 200 nM; and `Cc1ccc(-c2ccc(SCCCC(=O)O)c(F)c2)c(OC2CCCC2)n1` [Example 189, 4-[4-(2-cyclopentyloxy-6-methyl-pyridin-3-yl)-2-fluoro-phenylsulfanyl]-butyric acid], with 200 to 2000 nM.
For `Cc1cc(F)c(OC(C)C)c(-c2ccc(SCCCC(=O)O)c(F)c2)c1` [Example 190, 4-(3,3′-difluoro-2′-isopropoxy-5′-methyl-biphenyl-4-ylsulfanyl)-butyric acid], the EC50 is < 200 nM.
In the case of `CCCOc1c(F)cc(C)cc1-c1ccc(SCCCC(=O)O)c(F)c1` [Example 191, 4-(3,3′-difluoro-5′-methyl-2′-propoxy-biphenyl-4-ylsulfanyl)-butyric acid], the EC50 was < 200 nM.
`CCCOc1ccc(-c2ccc(SCCCC(=O)O)c(F)c2)c(OCCC)c1` [Example 192, 4-(3-fluoro-2′,4′-dipropoxy-biphenyl-4-ylsulfanyl)-butyric acid]: the EC50 lay in the range of 2000 to 20000 nM.
With `Cc1ccc(OC2CCCC2)c(-c2ccc(SCCCC(=O)O)c(F)c2)c1F` [Example 193, 4-(6′-cyclopentyloxy-3,2′-difluoro-3′-methyl-biphenyl-4-ylsulfanyl)-butyric acid], the EC50 was 200 to 2000 nM.
Then `O=C(O)CCCSc1ccc(-c2cccc(F)c2OC2CCCC2)cc1F` [Example 194, 4-(2′-cyclopentyloxy-3,3′-difluoro-biphenyl-4-ylsulfanyl)-butyric acid], with > 20000 nM; and `Cc1cc(F)c(OC2CCCC2)c(-c2ccc(SCCCC(=O)O)c(F)c2)c1` [Example 195, 4-(2′-cyclopentyloxy-3,3′-difluoro-5′-methyl-biphenyl-4-ylsulfanyl)-butyric acid], with 200 to 2000 nM; and `O=C(O)CCCCOc1c(F)cc(-c2cccnc2OCC2CCC2)cc1F` [Example 196, 5-[4-(2-cyclobutylmethoxy-pyridin-3-yl)-2,6-difluoro-phenoxy]-pentanoic acid], with < 200 nM.
On to `O=C(O)CCCCOc1c(F)cc(-c2cccnc2OC2CC2)cc1F` [Example 197, 5-[4-(2-cyclopropoxy-pyridin-3-yl)-2,6-difluoro-phenoxy]-pentanoic acid], for which the EC50 lay within 200 to 2000 nM.
Then `Cc1cnc(OC2CCCC2)c(-c2cc(F)c(SCCCC(=O)O)c(F)c2)c1` [Example 198, 4-[4-(2-cyclopentyloxy-5-methyl-pyridin-3-yl)-2,6-difluoro-phenylsulfanyl]-butyri c acid], with < 200 nM; and `CC(CCC(=O)O)Sc1ccc(-c2cccnc2OC2CCCC2)cc1` (stereo not drawn) [Example 199, 4-[4-(2-cyclopentyloxy-pyridin-3-yl)-phenylsulfanyl]-pentanoic acid], with < 200 nM; and `CC(C)Oc1ncccc1-c1ccc(SC(C)CCC(=O)O)cc1` (stereo not drawn) [Example 200, 4-[4-(2-isopropoxy-pyridin-3-yl)-phenylsulfanyl]-pentanoic acid], with 200 to 2000 nM.
Then `CC(CCC(=O)O)Sc1c(F)cc(-c2cccnc2OC2CCCC2)cc1F` (stereo not drawn) [Example 201, 4-[4-(2-cyclopentyloxy-pyridin-3-yl)-2,6-difluoro-phenylsulfanyl]-pentanoic acid], with < 200 nM; and `CC(CCC(=O)O)Sc1c(F)cc(-c2cccnc2SC2CCCC2)cc1F` (stereo not drawn) [Example 202, 4-[4-(2-cyclopentylsulfanyl-pyridin-3-yl)-2,6-difluoro-phenylsulfanyl]-pentanoic acid], with < 200 nM; and `CN(C)CCOc1ncccc1-c1cc(F)c(OCCCC(=O)O)c(F)c1` [Example 203, 4-[4-[2-(2-dimethylaminoethyloxy)-3-pyridyl]-2,6-difluoro-phenoxy]butanoic acid], with > 20000 nM.
For `CCCSc1ncccc1-c1cc(F)c(OCCCC(=O)O)c(F)c1` [Example 204, 4-[2,6-difluoro-4-(2-propylsulfanyl-pyridin-3-yl)-phenoxy]-butanoic acid] the value was < 200 nM.
Consider `O=C(O)CCCOc1c(F)cc(-c2cccnc2SC2CC2)cc1F` [Example 205, 4-[4-(2-cyclopropylsulfanyl-pyridin-3-yl)-2,6-difluoro-phenoxy]-butanoic acid], for which the EC50 fell in the range of 200 to 2000 nM.
For `CCSc1ncccc1-c1cc(F)c(OCCCC(=O)O)c(F)c1` [Example 206, 4-[4-(2-ethylsulfanyl-pyridin-3-yl)-2,6-difluoro-phenoxy]-butanoic acid] the value was < 200 nM.
For the compound `CCCCSc1ncccc1-c1cc(F)c(OCCCC(=O)O)c(F)c1` [Example 207, 4-[4-(2-butylsulfanyl-pyridin-3-yl)-2,6-difluoro-phenoxy]-butanoic acid], the EC50 is < 200 nM.
Then `O=C(O)CCCSc1ccc(-c2ccccc2NC2CCCC2)cc1` [Example 208, 4-(2′-cyclopentylamino-biphenyl-4-ylsulfanyl)-butyric acid], with < 200 nM; and `Cc1cnc(OC2CCCC2)c(-c2cc(F)c(OCCCC(=O)O)c(F)c2)c1` [Example 209, 4-[4-(2-cyclopentyloxy-5-methyl-pyridin-3-yl)-2,6-difluoro-phenoxy]-butyric acid], with < 200 nM; and `CC(C)Sc1cccc(-c2ccc(OCCCC(=O)O)cc2)n1` [Example 210, 4-[4-(6-isopropylsulfanyl-2-pyridyl)phenoxy]butanoic acid], with < 200 nM.
As for `CN(C)C1CCN(c2cccc(-c3cc(F)c(OCCCC(=O)O)c(F)c3)n2)C1` (stereo not drawn) [Example 212, 4-[4-[6-[3-(dimethylamino)pyrrolidin-1-yl]-2-pyridyl]-2,6-difluoro-phenoxy]butanoic acid], the EC50 is > 20000 nM.
Regarding `CC(C)Oc1ncccc1-c1cc(F)c(OCCCCC(=O)O)c(F)c1` [Example 213, 5-[2,6-difluoro-4-(2-isopropoxy-pyridin-3-yl)-phenoxy]-pentanoic acid], the EC50 is < 200 nM.
Then `O=C(O)CCCCOc1c(F)cc(-c2cccnc2OC2CCC2)cc1F` [Example 214, 5-[4-(2-cyclobutoxy-pyridin-3-yl)-2,6-difluoro-phenoxy]-pentanoic acid], with < 200 nM; and `O=C(O)CCCOc1c(F)cc(-c2cccnc2N2CCC(F)(F)C2)cc1F` [Example 215, 4-[4-[2-(3,3-difluoropyrrolidin-1-yl)-3-pyridyl]-2,6-difluoro-phenoxy]butanoic acid], with 200 to 2000 nM; and `CN1CCN(c2ncccc2-c2cc(F)c(OCCCC(=O)O)c(F)c2)CC1` [Example 216, 4-[2,6-difluoro-4-[2-(4-methylpiperazin-1-yl)-3-pyridyl]phenoxy]butanoic acid], with > 20000 nM.
For `Cc1cc(Oc2ncccc2-c2cc(F)c(OCCCC(=O)O)c(F)c2)no1` [Example 217, 4-[2,6-difluoro-4-[2-(5-methylisoxazol-3-yl)oxy-3-pyridyl]phenoxy]butanoic acid] the value was 2000 to 20000 nM; for `O=C(O)CCCOc1c(F)cc(-c2cccnc2OCCN2CC2)cc1F` [Example 218, 4-[4-[2-[2-(aziridin-1-yl)ethoxy]-3-pyridyl]-2,6-difluoro-phenoxy]butanoic acid], > 20000 nM; for `O=C(O)CCCOc1c(F)cc(-c2cccnc2OCc2ccco2)cc1F` [Example 220, 4-[2,6-difluoro-4-[2-(2-furylmethoxy)-3-pyridyl]phenoxy]butanoic acid], 200 to 2000 nM.
As to `CC1(COc2ncccc2-c2cc(F)c(OCCCC(=O)O)c(F)c2)COC1` [Example 221, 4-[2,6-difluoro-4-[2-[(3-methyloxetan-3-yl)methoxy]-3-pyridyl]phenoxy]butanoic acid], the half-maximal effective concentration (EC50) was > 20000 nM.
Regarding `O=C(O)CCCOc1c(F)cc(-c2cccnc2OCC2CCOC2)cc1F` (stereo not drawn) [Example 222, 4-[2,6-difluoro-4-[2-(tetrahydrofuran-3-ylmethoxy)-3-pyridyl]phenoxy]butanoic acid], the EC50 lay in the range of 2000 to 20000 nM.
Then `O=C(O)CCCOc1c(F)cc(-c2cccnc2OC2CC2)cc1F` [Example 225, 4-[4-(2-cyclopropoxy-pyridin-3-yl)-2,6-difluoro-phenoxy]-butyric acid], with 200 to 2000 nM; and `CC(C)(C)[Si](C)(C)OC1CCC(Oc2ncccc2-c2cc(F)c(OCCCC(=O)O)c(F)c2)C1` (stereo not drawn) [Example 226, 4-(4-{2-[3-(tert-butyl-dimethyl-silanyloxy)-cyclopentyloxy]-pyridin-3-yl}-2,6-difluoro-phenoxy)-butyric acid], with > 20000 nM.
With `O=C(O)CCCOc1c(F)cc(-c2cccnc2OC2CCC(O)C2)cc1F` (stereo not drawn) [Example 227, 4-{2,6-difluoro-4-[2-(3-hydroxy-cyclopentyloxy)-pyridin-3-yl]-phenoxy}-butyric acid], the EC50 is 2000 to 20000 nM.
